The source of these data is the Deep4Chem optical property database.

The series in a line: solvent given as SMILES.

As to `FC(F)(F)c1cc2n(n1)[B-]1(c3ccccc3-c3ccccc31)[n+]1ccc3ccccc3c1-2`, the absorption maximum reads like this: (in C1CCCCC1) 373 nm; (in Cc1ccccc1) 375 nm; (in ClCCl) 373 nm.
For the compound `CI`, the absorption maximum (in CCCCCC) was 259 nm.
For the setting “in O”, `O=C(O)CCCCCn1c2ccccc2c(=O)c2ccccc21` returned an absorption maximum of 410 nm.
Regarding `N#Cc1ccc(-n2c(-c3ccc(-c4ccc(-c5nc6c7ccccc7c7ccccc7c6n5-c5ccc(C#N)c6ccccc56)cc4)cc3)nc3c4ccccc4c4ccccc4c32)c2ccccc12`, the absorption maximum (in ClCCl) turned out to be 340 nm.
`Cc1cc(C)c(C2=C3C=CC(c4ccc5c(ccc6ccccc65)c4)=[N+]3[B-](F)(F)n3c2ccc3-c2ccc3c(ccc4ccccc43)c2)c(C)c1`: the absorption maximum (in ClC(Cl)Cl) came to 579 nm.
In the case of `CN(C)c1ccc(-c2ccc(C#N)s2)s1`, the absorption maximum (in CCO) is given as 413 nm.
`CCN(CC)c1ccc2cc(-c3nc4c5ccccc5c5ccccc5c4n3-c3ccc(C(C)(C)C)cc3)c(=O)oc2c1` displayed an absorption maximum (in ClCCl) of 410 nm.
`COc1cc2c(cc1-c1ccc(N(c3ccccc3)c3ccccc3)cc1)Cc1c3c(c4c(c1-2)-c1cc(OC)c(-c2ccc(N(c5ccccc5)c5ccccc5)cc2)cc1C4)C(=O)N(CCC(C)C)C3=O` gave an absorption maximum (in C1CCOC1) of 428 nm.
In turn, `CC1(C)c2ccccc2N2c3ccccc3C3(c4cc(C#N)ccc4-c4ccc(C#N)cc43)c3cccc1c32` returned an absorption maximum (in Cc1ccccc1) of 327.78 nm.
With `COc1ccc(-c2ccc(C(=O)NC(C)(C)C)c3c2ccc2c4ccccc4c4ccccc4c23)cc1`, the absorption maximum (in ClCCl) worked out at 339 nm.
On the same count and under the same terms, under `CC(=O)c1c(N[C@@H](Cc2ccc(O)cc2)C(=O)O)c2ccc(N(C)C)cc2oc1=O` stands 368 nm.
The same measure, in the same setting: under `CC(C)(C)Nc1c(-c2ccc(-c3cc(=O)cc(-c4ccccc4)o3)cc2)nc2ccccn12` stands 355 nm.
Compound `O=Cc1ccc(C#CC(C#Cc2ccc(C=O)o2)=Cc2ccc(C=C(C#Cc3ccc(C=O)o3)C#Cc3ccc(C=O)o3)cc2)o1` returned an absorption maximum (in ClC(Cl)Cl) of 450 nm.
On to `c1ccc(-n2c(-c3ccc([Si](c4ccc(-c5nc6ccccc6n5-c5ccccc5)cc4)(c4ccc(-c5nc6ccccc6n5-c5ccccc5)cc4)c4ccc(-c5nc6ccccc6n5-c5ccccc5)cc4)cc3)nc3ccccc32)cc1`, for which the absorption maximum (in ClCCl) was found to be 306 nm.
For `N#Cc1c(N2CCCCC2)cc(-c2ccc3ccccc3c2)c2c1-c1ccccc1C2`, where the note is “in C1CCOC1”, the absorption maximum amounted to 362 nm.
`CCCCCCCCCCOc1cc(OCCCCCCCCCC)cc(C2=C3C(/C=C/c4ccc(OC)cc4)=CC(/C=C/c4ccc(OC)cc4)=[N+]3[B-](F)(F)n3c(/C=C/c4ccc(OC)cc4)cc(C=Cc4ccc(OC)cc4)c32)c1` showed an absorption maximum (in ClC(Cl)Cl) of 689 nm.
Regarding `Cc1ccc(-c2ccc(-c3ccc(-c4ccc(C)cc4)cc3/C(=C(/c3ccccc3)c3cc(-c4ccc(C)cc4)ccc3-c3ccc(-c4ccc(C)cc4)cc3)c3ccccc3)cc2)cc1`, under “in C1CCOC1”, the absorption maximum was determined as 295 nm.
In the case of `CN(C)c1ccc(-c2nc3ccccc3n2-c2ccccc2)cc1`, the absorption maximum (in CC#N) is recorded as 325 nm.
`CCCCCCc1ccc(-n2c3c(c4c2c2c(n4-c4ccc(CCCCCC)cc4)-c4cccc(OC)c4NB2c2ccccc2)B(c2ccccc2)Nc2c(OC)cccc2-3)cc1`: the absorption maximum (in Cc1ccccc1) was 382 nm.
The compound `c1ccc(-c2nc(-c3ccccc3)nc(-c3cc(-n4c5ccccc5c5ncccc54)c(-n4c5ccccc5c5ccccc54)c(-n4c5ccccc5c5ncccc54)c3)n2)cc1` gave an absorption maximum (in Cc1ccccc1) of 376.56 nm.
In the case of `CC(C)[Si](C#Cc1ccc2c(C#C[Si](C(C)C)(C(C)C)C(C)C)cc3c4cc(C#C[Si](C(C)C)(C(C)C)C(C)C)ccc4c(C#C[Si](C(C)C)(C(C)C)C(C)C)cc3c2c1)(C(C)C)C(C)C`, for the setting “in ClCCl”, the absorption maximum was 394 nm.
In the case of `CC(=O)Nc1ccc(C2=C/C(=C\c3ccc(C#N)cc3)C(=O)N2)cc1`, the absorption maximum (in C1COCCO1) came out at 456 nm.
For `CC(C)(C)c1ccc(-c2cc(-c3ccc(-c4cc(-c5ccc(C(C)(C)C)cc5)c(C(=O)N5CCCCC5)s4)s3)sc2C(=O)N2CCCCC2)cc1`, the absorption maximum (in ClCCl) is 378 nm.
Regarding `COc1cc(OC)cc(-c2ccc(C3=CC(c4ccccc4)=C(c4ccccc4)C3)cc2)c1`, under “in ClCCl”, the absorption maximum is 366 nm.
With `COc1ccc2ncccc2c1`, the absorption maximum by setting is: (in CC#N) 329 nm; (in CCCC#N) 329 nm; (in Cc1ccccc1) 331 nm.
For `CN(C)c1[se]c(-c2ccccc2)nc1-c1ccccc1`, under “in ClC(Cl)Cl”, the absorption maximum was found to be 326 nm.
Consider `c1ccc(-c2cc3c(-c4ccccc4)c4cccc5c(-c6ccccc6)cc6c(-c7ccccc7)c7cccc2c7c3c6c54)cc1`, for which the absorption maximum (in ClCCl) is on record as 454 nm.
As to `CCCCCCCCN1C(=O)c2ccc3c4c(-c5ccc6c7ccccc7n(-c7ccccc7)c6c5)cc5c6c(ccc(c7c(-c8ccc9c%10ccccc%10n(-c%10ccccc%10)c9c8)cc(c2c37)C1=O)c64)C(=O)N(CCCCCCCC)C5=O`, the absorption maximum (in ClC(Cl)Cl) worked out at 577 nm.
The compound `CCOC(=O)c1c(-c2cc3c(ccc4ccccc43)oc2=O)nn(-c2cccc(C)c2)c1C(=O)OCC` yielded an absorption maximum (in ClCCl) of 361 nm.
For `C[n+]1ccn(CCCCc2ccc3c(c2)c2ccccc2n3-c2cc(C#N)c(C#N)cc2F)c1`, the absorption maximum (in CC#N) was determined as 350.79 nm.
The compound `CCCCCCn1c2ccccc2c2cc(/C=C/c3cc(=O)oc4cc(C)ccc34)ccc21` yielded an absorption maximum (in CS(C)=O) of 405 nm and an absorption maximum (in ClC(Cl)Cl) of 393 nm.
Consider `C=CB1C=Cc2ccc3ccccc3c2N1`, for which the absorption maximum (in C1CCCCC1) was 355 nm.
On to `CN(C)c1ccc(C(=O)c2ccccc2)cc1`, for which the absorption maximum (in C1CCCCC1) is given as 325 nm; the absorption maximum (in CC#N) came out at 345 nm; the absorption maximum (in CO) is 355 nm; the absorption maximum (in CS(C)=O) is reported as 350 nm; the absorption maximum (in c1ccccc1) was 340 nm.
Consider `CCCCCCCCC1(CCCCCCCC)c2cc(C#CC#Cc3ccc(N(c4ccccc4)c4ccccc4)cc3)ccc2-c2ccc(C=O)cc21`, for which the absorption maximum was determined as 377 nm (in C1CCOC1); 383 nm (in C1COCCO1); 375 nm (in CC#N); 389 nm (in CC(C)=O); 378 nm (in CCCCCC); 381 nm (in CCOC(C)=O). For the same compound, the absorption maximum is on record as 382 nm (in CN(C)C=O); 382 nm (in CS(C)=O); 387 nm (in Cc1ccccc1); 375 nm (in ClC(Cl)Cl); 365 nm (in ClCCl).
Under “in ClC(Cl)Cl”, `CC(C)[Si](C#Cc1c2c(=O)c3ccccc3c2c(C#C[Si](C(C)C)(C(C)C)C(C)C)c2c(=O)c3ccccc3c12)(C(C)C)C(C)C` yielded an absorption maximum of 525 nm.
As for `Cc1ccc2nnn(-c3c(C#N)c4c(N)ncnc4n3[C@H]3C[C@H](O)[C@@H](CO)O3)c2c1`, the absorption maximum (in CO) amounted to 278 nm.
In the case of `Cc1c(C)n2c(COC(=O)c3ccc(F)cc3)c(C)c(=O)n2c1=O`, under “in CCO”, the absorption maximum turned out to be 375 nm.
Compound `CC(C)(C)c1ccc(-c2c(-c3cccc(N(c4ccccc4)c4ccccc4)c3)c(C#N)c(-c3cccc(N(c4ccccc4)c4ccccc4)c3)c(-c3ccc(C(C)(C)C)cc3)c2-c2ccc(C(C)(C)C)cc2)cc1` registered an absorption maximum (in C1CCOC1) of 297 nm.
`CC1=N/C(=C\c2cccc(N(C)C)c2)C(=O)N1CCO` returned an absorption maximum (in C1CCOC1) of 354 nm, an absorption maximum (in CC#N) of 352 nm and an absorption maximum (in CCCCCC) of 352 nm.
